Data taken from US6531472B2, “Tetralone derivatives” (Hoffman-La Roche Inc., priority 2000, dated 2003).

Tested on: HDAC
Experiment: HDAC inhibition screening assay using an aminocoumarin derivative of an omega-acetylated lysine as substrate
Format: biochemical
Conditions: compound concentration 10 nM
Method: To measure the HDAC inhibitory properties of the compounds of the invention a screening assay was established using an aminocoumarin derivative of an omega-acetylated lysine as substrate for the enzyme. […] Using the protocol described therein, the inhibitory effect of the new compounds was determined at a concentration of 10 nM.

| Compound | Inhibitory effect at 10 nM in % [%] |
| --- | --- |
| COc1ccc2c(c1)CCC(CCCCC(=O)NO)C2=O (stereo not drawn) [Example 2, 5-(6-methoxy-1-oxo-1,2,3,4-tetrahydro-naphthalen-2-yl)-pentanoic acid hydroxyamide] | 64 |
| CC1(CCCCCC(=O)NO)CCc2ccccc2C1=O (stereo not drawn) [Example 4, 6-(2-methyl-1-oxo-1,2,3,4-tetrahydro-naphthalen-2-yl)-hexanoic acid hydroxyamide] | 71 |
| CC1(/C=C/CCCC(=O)NO)CCc2ccccc2C1=O (stereo not drawn) [Example 7, 6-(2-methyl-1-oxo-1,2,3,4-tetrahydro-naphthalen-2-yl)-hex-5-enoic acid hydroxyamide] | 60 |
| COc1cccc2c1CCC(CCCCCC(=O)NO)C2=O (stereo not drawn) [Example 8] | 72 |
| CCOC(=O)C1(CCCCCC(=O)NO)CCc2c(OC)cccc2C1=O (stereo not drawn) [Example 9, 2-(5-hydroxycarbamoyl-pentyl)-5-methoxy-1-oxo-1,2,3,4-tetrahydro-naphtalene-2-carboxyclic acid ethyl ester] | 57 |
| CCOC(=O)C1(CCCCCCCC(=O)NO)CCc2c(C)cc(C)cc2C1=O (stereo not drawn) [Example 10, 2-(7-Hydroxycarbamoyl-heptyl)-5,7-dimethyl-1-oxo-1,2,3,4-tetrahydro-naphtalene-2-carboxylic acid ethyl ester] | 55 |
